Results from patent US10011571B2, “Preparation method for aromatic heterocyclic compound used as selective JAK3 and/or JAK1 kinase inhibitor and application of aromatic heterocyclic compound” (SHENZHEN CHIPSCREEN BIOSCIENCES, LTD., priority 2014, dated 2018).

Key:
JAK3 = JAK3 (Homo sapiens (Human), UniProt P52333); experiment: Z'-LYTE enzymatic activity detection, JAK3; assay type: biochemical; details: test compound 30 nM; for inhibition at 0.03 µM: read-out: JAK3 % inhibitory rate @30 nM
Description: (§1) The basic principle of in vitro enzymatic activity assay is based on the difference between the intensities of fluorescence signals generated at different wavelengths (445 nm and 520 nm) from the phosphorylated substrate and non-phosphorylated substrate, in which the specific fluorescence-labeled substrate is phosphorylated by the kinase. When different test compounds are added, the inhibition of kinase activity is represented as the different degrees of substrate phosphorylation, and thus as the different intensities of fluorescence signal, based on which the inhibitory activity of the compound on the kinase can be calculated. Basic detection principle is illustrated in FIG. 1.
(§2) In an enzymatic inhibitory activity detection, GST-labeled human recombinant JAK kinases, including JAK1/PV4774, JAK2/PV4210, JAK3/PV3855, TYK2/PV4790 and their corresponding specific substrates, including Tyr6 (Z′-LYTE® Kinase Assay Kit-Tyrosine 6 Peptide, JAK1/PV4122), Tyr4 (Z′-LYTE® Kinase Assay Kit-Tyrosine 4 Peptide, JAK2/PV3193), Tyr4 (Z′-LYTE® Kinase Assay Kit-Tyrosine 4 Peptide, JAK3/PV3193), Tyr3 (Z′-LYTE® Kinase Assay Kit-[…], TYK2/PV3192) are used. In all tests, development reagent A (PV3297) was used as the test agent. All materials mentioned above were purchased from Invitrogen.
(§3) (1) Preparation: kinase reaction buffer (working solution) is prepared according to the instruction; a concentration gradient of the test compound is prepared by dilution using the kinase reaction buffer (the highest compound concentration is 10 μM for JAK1, JAK2, and TYK2 detection, and 1 μM for JAK3 detection, respectively).
(§4) (2) 10 μl of reaction system, comprising 2.5 μL test compound, 5 μL kinase reaction buffer and 2.5 μL ATP solution (provided by the kit), is mixed and reaction is performed at room temperature for 1 h.
(§5) (3) Controls, including a solvent control without the test compound, a negative control without ATP and a positive control with the phosphorylated substrate, are tested together with the detection. All tests are carried out in triplicate.
(§6) (4) After the enzymatic reaction, 5 μL pre-formulated development buffer is added, and reaction is performed at room temperature for 1 h. Subsequently, the reaction is terminated by adding 5 μL stop buffer.
(§7) (5) The fluorescence signal in each well is detected by an Ascent Fluoroskan FL reader (Thermo Labsystems) at an excitation wavelength of 400 nm, and emission wavelengths of 445 nm and 520 nm. The proportion of substrate phosphorylation is obtained by reference to the fluorescence signal intensity C445/F520.
(§8) (6) The enzymatic inhibitory rate of the test compound can be calculated based on the following equation: Inhibitory rate (%)=1−the proportion of substrate phosphorylation in the detection well/the proportion of substrate phosphorylation in the solvent control well. The half-inhibitory concentration (IC50) can be calculated using an IC50 calculator based on the inhibitory rates of phosphorylation for the test compounds at different concentration gradients.
(§9) Based on the above method, the compounds described herein are enzymatically evaluated in vitro for JAKs (the concentration of the test compound is 30 nM for JAK3 and JAK2 test, and 300 nM for JAK1 test) using Xeljanz (tofacitinib citrate) as the positive control.

JAK1 = JAK1 (Homo sapiens (Human), UniProt P23458); experiment: Z'-LYTE enzymatic activity detection, JAK1; assay type: biochemical; details: test compound 300 nM; for inhibition at 0.3 µM: read-out: JAK1 % inhibitory rate @300 nM
JAK1, sequence (P23458 whole entry): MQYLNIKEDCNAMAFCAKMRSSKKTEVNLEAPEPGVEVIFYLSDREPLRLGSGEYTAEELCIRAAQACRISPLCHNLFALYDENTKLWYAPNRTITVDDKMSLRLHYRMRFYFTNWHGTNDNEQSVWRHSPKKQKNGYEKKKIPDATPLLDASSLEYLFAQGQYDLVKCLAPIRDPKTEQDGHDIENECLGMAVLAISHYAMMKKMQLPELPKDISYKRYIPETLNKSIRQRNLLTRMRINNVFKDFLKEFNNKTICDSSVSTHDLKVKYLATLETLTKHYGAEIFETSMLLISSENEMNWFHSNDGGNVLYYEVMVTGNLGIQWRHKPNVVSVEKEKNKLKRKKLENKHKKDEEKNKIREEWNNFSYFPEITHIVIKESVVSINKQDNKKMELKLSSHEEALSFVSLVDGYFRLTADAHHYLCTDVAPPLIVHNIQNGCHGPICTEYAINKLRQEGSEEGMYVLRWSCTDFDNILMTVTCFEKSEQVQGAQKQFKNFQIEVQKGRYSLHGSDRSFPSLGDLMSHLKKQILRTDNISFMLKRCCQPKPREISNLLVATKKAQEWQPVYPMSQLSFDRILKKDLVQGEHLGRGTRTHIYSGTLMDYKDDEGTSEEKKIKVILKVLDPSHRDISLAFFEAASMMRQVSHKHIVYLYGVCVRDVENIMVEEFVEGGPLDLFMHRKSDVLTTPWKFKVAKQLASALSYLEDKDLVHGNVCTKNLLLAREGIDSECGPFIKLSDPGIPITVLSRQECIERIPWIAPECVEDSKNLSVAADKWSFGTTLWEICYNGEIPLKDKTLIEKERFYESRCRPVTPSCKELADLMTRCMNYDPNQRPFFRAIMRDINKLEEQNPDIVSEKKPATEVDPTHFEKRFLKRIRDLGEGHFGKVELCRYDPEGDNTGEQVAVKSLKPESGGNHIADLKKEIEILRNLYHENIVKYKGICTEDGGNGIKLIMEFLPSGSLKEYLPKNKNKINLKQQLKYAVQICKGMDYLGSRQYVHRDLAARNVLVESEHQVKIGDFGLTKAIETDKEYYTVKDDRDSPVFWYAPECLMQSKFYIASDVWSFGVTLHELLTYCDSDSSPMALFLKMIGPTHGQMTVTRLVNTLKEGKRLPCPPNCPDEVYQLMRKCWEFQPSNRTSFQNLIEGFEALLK
Description: as §1, §2, §3, §4, §5, §6, §7, §8, §9

JAK2 = JAK2 (Homo sapiens (Human), UniProt O60674); experiment: Z'-LYTE enzymatic activity detection, JAK2; assay type: biochemical; details: test compound 30 nM; for inhibition at 0.03 µM: read-out: JAK2 % inhibitory rate @30 nM
JAK2, sequence (O60674 whole entry): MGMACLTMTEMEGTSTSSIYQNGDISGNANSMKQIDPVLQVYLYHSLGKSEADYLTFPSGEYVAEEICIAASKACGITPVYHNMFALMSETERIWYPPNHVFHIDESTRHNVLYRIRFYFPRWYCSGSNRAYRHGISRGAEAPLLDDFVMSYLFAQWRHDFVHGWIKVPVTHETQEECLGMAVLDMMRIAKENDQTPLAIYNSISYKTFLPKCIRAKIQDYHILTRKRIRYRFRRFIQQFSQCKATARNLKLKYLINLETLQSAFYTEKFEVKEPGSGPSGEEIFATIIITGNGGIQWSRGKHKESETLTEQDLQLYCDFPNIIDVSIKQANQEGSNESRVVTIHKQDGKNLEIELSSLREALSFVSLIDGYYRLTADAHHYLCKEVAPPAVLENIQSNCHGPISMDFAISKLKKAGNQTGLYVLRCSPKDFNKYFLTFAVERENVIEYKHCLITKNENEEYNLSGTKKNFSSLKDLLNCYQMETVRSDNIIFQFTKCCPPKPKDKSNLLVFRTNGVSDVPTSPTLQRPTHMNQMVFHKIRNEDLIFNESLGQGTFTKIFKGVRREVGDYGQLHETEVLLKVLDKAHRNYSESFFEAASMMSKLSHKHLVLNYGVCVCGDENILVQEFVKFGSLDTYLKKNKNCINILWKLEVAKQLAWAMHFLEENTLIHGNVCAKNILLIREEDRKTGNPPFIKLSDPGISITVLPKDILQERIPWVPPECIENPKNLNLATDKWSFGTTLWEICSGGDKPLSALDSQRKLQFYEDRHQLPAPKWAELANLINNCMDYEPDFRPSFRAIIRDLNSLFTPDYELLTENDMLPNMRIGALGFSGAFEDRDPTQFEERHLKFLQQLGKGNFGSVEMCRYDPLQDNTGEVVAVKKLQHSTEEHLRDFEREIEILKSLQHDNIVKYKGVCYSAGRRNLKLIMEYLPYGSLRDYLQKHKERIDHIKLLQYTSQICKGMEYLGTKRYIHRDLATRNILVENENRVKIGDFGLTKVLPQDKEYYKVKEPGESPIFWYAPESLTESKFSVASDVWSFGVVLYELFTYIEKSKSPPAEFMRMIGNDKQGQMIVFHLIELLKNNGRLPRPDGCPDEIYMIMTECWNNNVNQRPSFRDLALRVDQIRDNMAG
Description: as §1, §2, §3, §4, §5, §6, §7, §8, §9

CTLL-2 cells = experiment: Cell growth activity assay (MTS), CTLL-2 cell model; assay type: cell-based, mouse; details: 24 h; for activity at 0.3 µM: Mus musculus, CTLL-2, 300 nM, read-out: CTLL-2 % growth rate @300 nM
Description: (§10) MTS assay is a routine method for cell toxicity detection. The basic principle is based on the capacity of dehydrogenase in the mitochondria of living cells to reduce a novel yellow […] MTS to formazan, so that the amount of living cells is proportional to the amount of formazan product by detecting the absorbance at 490 nm (OD), thereby speculating the amount of living cells according to the OD value, and understanding the capacity of the test compound to inhibit the growth of cells or to kill the cells.
In this experiment, mouse T-cell line CTLL-2 was used. The proliferation and growth of this cell line strongly depend on IL-2, and it is commonly used to evaluate the active titer of exogenous IL-2. By inhibiting the activity of kinase JAK1/3, the proliferation of CTLL-2 can be inhibited under in vitro culture. The activation and proliferation of T-cell is also important pathological characteristics for various immunological diseases. Thus, this model is also pathologically related.
By comparing the change of absorbance generated by the cells treated by the test compounds using MTS assay, the growth inhibitory activity of the test compounds on the model cells can be realized, and thereby potential inhibitory activity of the compounds on JAK1/3 pathway can be evaluated.
(§11) MTS is performed according to routine procedure in a 96-well plate.
(§12) The model cells are inoculated into each well of the 96-well plate at an appropriate concentration (about 20,000 cells/well). After 24 h, the test compounds are added at different concentration gradients (the highest concentration of 10 μM). A solvent control (DMSO) and a negative control are also performed at the same time. Each experiment is repeated for 3 times. The cells are detected after cultured for another 24 h.
CTLL-2 is a suspended cell. After incubation, 20 μL pre-formulated mixture of MTS and PMS (in a ratio of 20:1) is directly added to each well. After incubation at 37° C. for 2 h, it is then detected by a microplate reader (490 nm).
The effect of the test compound on cell growth is calculated by comparing the change of OD values between the test well and the solvent control well, after subtracting the background of the negative control. For the test compounds at different concentration gradients, the inhibitory rates on the growth of model cells and their half-growth inhibitory concentrations (GI50) are each calculated.
Based on the above method, cytological evaluation is performed to the compounds described herein (for the detection of CTLL-2 cell, the concentration of the test compound is 300 nM; for the detection of HeLa and HUVEC cell, the concentration of the test compound is […]).

HeLa cells = experiment: Cell growth activity assay (MTS), HeLa cell model; assay type: cell-based, human; parameters: activity: dose or concentration left out as unconfirmed; details: 72 h; for activity: Homo sapiens, HeLa, read-out: HeLa % growth rate
Description: as §10
HeLa cell is a human cervical cancer cell line, and belongs to epithelial tumor cell line; HUVEC is a human umbilical vein endothelial cell, and belongs to primary endothelial cell; both types of cells express all subtypes except for JAK3.
The change of JAK kinase activity has no significant influence on other cell types except for the immune cells, and both cell models mentioned above are mainly used to evaluate whether there are any other kinase targets besides JAK kinases or there are nonselective cell toxicities.
In this experiment, a cultured cell model is incubated with the test compounds at different concentrations for a specific duration. The effect of the treatment by the test compound on the growth of cells is detected using MTS assay.
as §11
as §12, with “(about 5000” for “(about 20,000”, “highest final” for “highest”, “concentration is 40” for “concentration of 10”, “another 72” for “another 24”
After all culture medium is aspirated out of the well, 100 μL fresh medium and 20 μL pre-formulated mixture of MTS and PMS (in a ratio of 20:1) are added to each well. After incubation at 37° C. for 2 h, it is then detected by a microplate reader (490 nm).
The cell growth inhibitory rate and GI50 of the test compound are calculated as above.
Based on the above method, cytological evaluation is performed to the compounds described herein (for the detection of CTLL-2 cell, the concentration of the test compound is 300 nM; […]).

JAK3, sequence (P52333 whole entry): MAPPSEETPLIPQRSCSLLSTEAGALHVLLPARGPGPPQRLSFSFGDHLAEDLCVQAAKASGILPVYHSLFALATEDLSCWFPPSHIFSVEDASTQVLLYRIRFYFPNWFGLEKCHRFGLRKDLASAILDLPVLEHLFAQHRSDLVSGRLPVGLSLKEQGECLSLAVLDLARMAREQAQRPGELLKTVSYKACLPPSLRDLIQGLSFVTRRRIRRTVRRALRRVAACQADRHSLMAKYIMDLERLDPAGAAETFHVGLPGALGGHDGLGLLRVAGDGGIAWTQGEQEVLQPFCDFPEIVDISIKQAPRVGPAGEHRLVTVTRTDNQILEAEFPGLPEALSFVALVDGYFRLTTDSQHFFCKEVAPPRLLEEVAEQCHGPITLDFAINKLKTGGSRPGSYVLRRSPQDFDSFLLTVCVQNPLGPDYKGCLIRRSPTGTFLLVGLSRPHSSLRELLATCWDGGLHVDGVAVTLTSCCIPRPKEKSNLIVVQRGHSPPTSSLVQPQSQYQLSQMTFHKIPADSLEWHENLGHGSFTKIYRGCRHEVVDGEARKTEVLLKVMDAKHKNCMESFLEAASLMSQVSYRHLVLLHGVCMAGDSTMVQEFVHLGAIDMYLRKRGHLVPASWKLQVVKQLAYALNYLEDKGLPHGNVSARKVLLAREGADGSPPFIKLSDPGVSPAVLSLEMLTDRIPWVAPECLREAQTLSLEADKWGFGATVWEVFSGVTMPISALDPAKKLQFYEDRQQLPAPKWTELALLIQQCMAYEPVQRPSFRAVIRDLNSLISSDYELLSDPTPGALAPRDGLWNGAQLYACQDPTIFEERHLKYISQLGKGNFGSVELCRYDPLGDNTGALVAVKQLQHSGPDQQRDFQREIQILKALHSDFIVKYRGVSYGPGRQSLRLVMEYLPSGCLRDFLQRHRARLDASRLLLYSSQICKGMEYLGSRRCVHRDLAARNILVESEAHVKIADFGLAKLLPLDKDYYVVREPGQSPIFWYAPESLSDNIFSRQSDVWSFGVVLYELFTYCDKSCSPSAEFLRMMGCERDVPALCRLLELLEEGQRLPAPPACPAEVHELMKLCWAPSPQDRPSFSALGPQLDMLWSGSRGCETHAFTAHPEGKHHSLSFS

| Compound | JAK3 RV (ratio between the inhibitory rate of the test compound and that of Xeljanz) (JAK3) | inhibition at 0.03 µM (JAK3) | JAK1 RV (ratio between the inhibitory rate of the test compound and that of Xeljanz) (JAK1) | inhibition at 0.3 µM (JAK1) | inhibition at 0.03 µM (JAK2) | activity at 0.3 µM (CTLL-2 cells) | activity (HeLa cells) | JAK3 % inhibitory rate @30 nM (JAK3) | JAK1 % inhibitory rate @300 nM (JAK1) | JAK2 % inhibitory rate @30 nM (JAK2) | CTLL-2 % growth rate @300 nM (CTLL-2 cells; 300 nM) | HeLa % growth rate @10 μM (HeLa cells) |
| --- | --- | --- | --- | --- | --- | --- | --- | --- | --- | --- | --- | --- |
| C=CC(=O)N(C)c1cc(Nc2ncc(Cl)c(NCCCNC(=O)c3ccc(C#N)nc3)n2)ccc1F [Example 44, N-(3-(5-chloro-2-(4-fluoro-3-(N-methylacrylamido)phenylamino)pyrimidinyl-4-amino)propyl)-6-cyanonicotinamide] | 0.58 | 113% | 0.34 | 58% | 0% | 29% | 39% | – | – | – | – | – |
| C=CC(=O)N(C)c1cc(Nc2ncc(Cl)c(NCCCNC(=O)c3cc(F)c(F)c(F)c3F)n2)ccc1F [Example 107, N-(3-(5-chloro-2-(4-fluoro-3-(N-methylacrylamido)phenylamino)pyrimidinyl-4-amino)propyl)-2,3,4,5-tetrafluorobenzamide] | 1.01 | 84% | 0.79 | 67% | 0% | 2% | 59% | – | – | – | – | – |
| C=CC(=O)N(C)c1cc(Nc2ncc(Cl)c(NCCCNC(=O)c3ccc(O)cc3)n2)ccc1F [Example 48, N-(3-(5-chloro-2-(4-fluoro-3-(N-methylacrylamido)phenylamino)pyrimidinyl-4-amino)propyl)-4-hydroxybenzamide] | 0.56 | 109% | – | 0% | 0% | 50% | 90% | – | – | – | – | – |
| C=CC(=O)N(C)c1cc(Nc2ncc(Cl)c(NCCCNC(=O)Cc3ccc(C#N)cc3)n2)ccc1F [Example 64, N-(5-(5-chloro-4-(3-(2-(4-cyanophenyl)acetamino)propylamino)pyrimidinyl-2-amino)-2-fluorophenyl)-N-methylacrylamide] | 0.78 | 105% | 0.13 | 13% | 0% | 37% | 78% | – | – | – | – | – |
| C=CC(=O)N(C)c1cc(Nc2ncc(Cl)c(NCCCNC(=O)c3ccccc3)n2)ccc1F [Example 87, N-(3-(5-chloro-2-(4-fluoro-3-(N-methylacrylamido)phenylamino)pyrimidinyl-4-amino)propyl)benzamide] | 0.99 | 82% | 0.51 | 43% | 0% | 3% | 22% | – | – | – | – | – |
| C=CC(=O)N(C)c1cc(Nc2ncc(Cl)c(NCCCCCCNC(=O)c3ccc(C#N)cc3)n2)ccc1F [Example 123, N-(6-(5-chloro-2-(4-fluoro-3-(N-methylacrylamido)phenylamino)pyrimidinyl-4-amino)hexyl)-4-cyanobenzamide] | 0.95 | – | – | – | – | – | – | 79% | 0% | 0% | 5% | 5% |
| C=CC(=O)N(C)c1cc(Nc2ncc(Cl)c(NCCCNC(=O)c3cccc(C(F)(F)F)c3)n2)ccc1F [Example 91, N-(3-(5-chloro-2-(4-fluoro-3-(N-methylacrylamido)phenylamino)pyrimidinyl-4-amino)propyl)-3-trifluoromethylbenzamide] | 0.99 | 82% | 0.24 | 20% | 0% | 2% | 40% | – | – | – | – | – |
| C=CC(=O)N(C)c1cc(Nc2ncc(Cl)c(NCCCNC(=O)c3ccc(OC)cc3)n2)ccc1F [Example 40, N-(3-(5-chloro-2-(4-fluoro-3-(N-methylacrylamido)phenylamino)pyrimidinyl-4-amino)propyl)-4-methoxylbenzamide] | 0.46 | 89% | 0.02 | 4% | 0% | 39% | 82% | – | – | – | – | – |
